Experimental data taken from patent US10280184B2, “Heterocyclic kinase inhibitors” (AbbVie Inc., priority 2014, dated 2019).

Biological target: CSF-1R (Homo sapiens (Human), UniProt P07333)
Test: In vitro CSF-1R kinase activity measured by trFRET
Type: biochemical
Conditions: recombinant human catalytic domain (aa 538-910), 0.1 mM ATP; read-out: CSF-1R enzyme IC50
Procedure: In Vitro CSF-1R Kinase Activity Measured by Time-Resolved Fluorescence Resonance Energy Transfer (trFRET)
The CSF-1R construct corresponds to recombinant human catalytic domain (aa 538-910), which was purchased from Invitrogen (cat #PV4092). CSF-1R was mixed with peptide substrate (biotin-TYR1, Sequence: Biotin-(Ahx)-GAEEEIYAAFFA-COOH, 4 μM final) at varying inhibitor concentrations in reaction buffer: 50 mM MOPSO pH 6.5, 10 mM MgCl2, 2 mM MnCl2, 2.5 mM DTI, 0.01% BSA, 0.1 mM Na3VO4 and 0.1 mM ATP. After about 60 min incubation at rt, the reaction was quenched by addition of EDTA (final concentration: 100 mM) and developed by addition of detection reagents (final approximate concentrations: 30 mM HEPES pH 7.0, 0.06% BSA, 0.006% Tween-20, 0.24 M KF, 80 ng/mL PT66K (europium labeled anti-phosphotyrosine antibody cat #61T66KLB Cisbio, Bedford, Mass.) and 0.6 μg/mL SAXL (Phycolink streptavidin-allophycocyanin acceptor, cat #PJ25S, Prozyme, San Leandro, Calif.). The developed reaction was incubated in the dark for about 60 min at rt, then read via a time-resolved fluorescence detector (Rubystar, BMG) using a 337 nm laser for excitation and monitoring emission wavelength at 665 nm. Within the linear range of the assay, the observed signal at 665 nm was directly related to phosphorylated product and can be used to calculate the IC50 values.

Chain of CSF-1R (P07333 538-910): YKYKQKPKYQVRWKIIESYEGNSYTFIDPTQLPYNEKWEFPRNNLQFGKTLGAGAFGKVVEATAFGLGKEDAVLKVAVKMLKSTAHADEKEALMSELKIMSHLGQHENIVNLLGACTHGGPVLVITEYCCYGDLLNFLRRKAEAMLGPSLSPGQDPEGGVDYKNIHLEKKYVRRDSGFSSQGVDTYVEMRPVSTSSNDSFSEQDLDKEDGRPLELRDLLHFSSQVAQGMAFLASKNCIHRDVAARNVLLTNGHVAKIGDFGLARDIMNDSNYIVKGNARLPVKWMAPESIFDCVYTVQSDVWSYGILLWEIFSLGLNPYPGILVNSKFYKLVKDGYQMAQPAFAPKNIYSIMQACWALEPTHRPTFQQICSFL

Row | IC50 | SMILES
1 | < 100 nM | CNC(=O)N1CCC(n2cc(Nc3nc(C4CCCCC4)cn4ncnc34)cn2)CC1 [F.1.44, 4-(4-((6-cyclohexyl-[1,2,4]triazolo[1,5-a]pyrazin-8-yl)amino)-1H-pyrazol-1-yl)-N-methylpiperidine-1-carboxamide]
2 | < 100 nM | O[C@H]1CCC[C@H](n2cc(Nc3nc(C4CCCCC4)cn4ncnc34)cn2)C1 [G.1.1]
3 | < 100 nM | O[C@@H]1CCC[C@@H](n2cc(Nc3nc(C4CCCCC4)cn4ncnc34)cn2)C1 [G.1.2]
4 | < 100 nM | O[C@@H]1CCC[C@H](n2cc(Nc3nc(C4CCCCC4)cn4ncnc34)cn2)C1 [G.1.3]
